Where “and” joins values, the source holds several entries; their conditions need not be identical. Identical values can stand only once. Like-named read-outs stand apart in the source and are kept apart here. Marks after values point to notes of the source that are not given here.
Assays:
[1] = system: P. acnes NCTC 737; test: Fixed ratio combination MIC/MBC assays; assay type: cell-based, Propionibacterium acnes; conditions: compound alone
Protocol: (§1) (g) Fixed Ratio Combination MIC/MBC Assays
(§2) This method used a sterile 96-well microtitre plate, capable of holding about 200 μl of liquid per well. The wells contained liquid culture medium and ranges of decreasing concentrations of the relevant test compounds alone in doubling dilutions (eg 1000, 500, 250, 125 . . . μg/ml, etc. down to 0.49 μg/ml) or doubling dilutions of a combination of two compounds mixed initially at a fixed concentration ratio (based on molarity in this instance). The culture medium was as described above.
(§3) The wells were inoculated with a liquid suspension of freshly grown micro-organism and incubated under the conditions described above. After incubation, the microtitre plate was examined visually (with the aid of a light box) for cloudiness in each well, which would indicate microbial growth. The MIC value was recorded as the lowest concentration of test compounds alone or concentrations of the mixture of the two test compounds required to inhibit microbial growth, ie the liquid in the well remained clear.
(§4) The assays were conducted in triplicate and included both negative (culture medium with no micro-organisms) and positive (culture medium plus diluting solvent(s) plus micro-organism) controls.
(§5) These samples were then individually sub-cultured on antibiotic-free agar medium, under the incubation conditions described above. Following incubation they were examined visually for microbial growth.
(§6) Thus for each mixture tested, the FIC for compound A (FICA)=MIC for (A+B)/MIC for A alone. Similarly the FIC for compound B (FICB)=MIC for (A+B)/MIC for B alone. The overall FICI=FICA+FICB.
(§7) FBC & FBCI were calculated in the same manner using recorded MBC values.

[2] = system: C. striatum NCTC 764; test: Fixed ratio combination MIC/MBC assays; assay type: cell-based, Corynebacterium striatum
Protocol: The second test organism used was Corynebacterium striatum NCTC 764. This is a Gram-positive bacterium which is closely related to organisms (aerobic diphtheroids of the genus Corynebacterium) that cause body odour (Guillet et al, Eur J Dermatol, 2000 Jan-Feb, 10(1): 41-2). The C. striatum was cultured and maintained on Mueller-Hinton Medium (agar and broth) at pH 7.3 (±0.1); cultures were incubated aerobically at 37° C. for 18-24 hours.
as §1, §2, §3, §4, §5, §6, §7

[3] = system: Propionibacterium acnes NCTC 737; test: Minimum inhibitory concentration (MIC) assay; assay type: cell-based; conditions: P. acnes NCTC 737; compound alone
Protocol: (§8) The first test organism used was Propionibacterium acnes NCTC 737. This is a propionibacterial strain and is the type strain of the genus; it is fully susceptible to antibiotics. The propionibacteria are clinically significant due to their involvement in acne. They are also opportunistic pathogens in compromised hosts. Activity observed against these micro-organisms is expected to be a good predictor of activity against acne.
(§9) The propionibacteria were cultured and maintained on Wilkins-Chalgren Anaerobe Medium (agar and broth) at pH 6.0; all cultures were incubated anaerobically at 37° C. for 72 hours.
(a) Minimum Inhibitory Concentration (MIC) Assay
This is a standard international method for quantitatively assessing the antimicrobial activity of a compound in a liquid medium. The method used a sterile 96-well microtitre plate, capable of holding about 200 μl of liquid per well. The wells contained liquid culture medium and ranges of decreasing concentrations of the relevant test compound in doubling dilutions (eg 1000, 500, 250, 125 . . . μg/ml, etc, down to 0.49 μg/ml). The culture media were as described above.
as §3, with “of test compound required to” for “of test compounds alone or concentrations of the mixture of the two test compounds required to”, “ie the lowest concentration for which the liquid in” for “ie the liquid in”
The assays included both negative (culture medium with no micro-organisms) and positive (culture medium plus diluting solvent plus micro-organism) controls.

[4] = system: Propionibacterium acnes NCTC 737; test: Minimum biocidal concentration (MBC) assay; assay type: cell-based; conditions: P. acnes NCTC 737; compound alone
Protocol: as §8, §9
(b) Minimum Biocidal Concentration (MBC) Assay
This assay, normally carried out after an MIC assay, determines the minimum concentration of a compound that is lethal to the micro-organism being tested.
as §5

[5] = system: Propionibacterium acnes NCTC 737; test: Disc diffusion assay (DDA) and synergy disc diffusion assay (SDDA); assay type: cell-based; conditions: for DDA zone of inhibition diameter: compound alone, 12.5 μg per disc (gluconate, picolinate 25 μg; silicate 12.4 μg; chlorophyllin 200 μg); for SDDA area increase / SDDA increase: copper salt + tropolone versus the greater single zone; for (S)DDA with tropolone: copper salt combined with tropolone on one disc, 12.5 μg each (exceptions b187)
Protocol: (c) Disc Diffusion Assay (DDA)
This is an internationally recognised standard method for qualitatively assessing the antimicrobial activity of a compound or combination of compounds.
A sterile paper disc was impregnated with a sample of the test compound(s) in a suitable solvent (or applied neat) and 30 minutes allowed for any of the solvents to evaporate (where possible). The disc was then placed on an agar plate onto which the test micro-organism had been inoculated. The plate was then incubated under the conditions described above, following which it was examined visually for signs of microbial growth. […] The diameter of this zone of “inhibition” was measured using a ProtoCOL™ automated zone sizer (Synbiosis, Cambridge, UK).
(d) Synergy Disc Diffusion Assay (SDDA)
This is a variation on the DDA method, in which two compounds are tested together for their combined antimicrobial activity.
Two test compounds A and B were placed on a single paper disc and the above described DDA procedure repeated.
The two compounds were then subjected in combination to the SDDA assay described above.
MIC/MBC experiments were performed in duplicate and (S)DDA experiments in triplicate.
The tropolone was dissolved in ethanol.

[6] = C. striatum NCTC 764, compound alone

Compound | MBC [1] | MIC [1] | MBC [2] | MIC [2] | MBC [2, 6] | MIC [2, 6] | MIC [3] | MBC [4] | MIC/MBC ratio [4] | DDA zone of inhibition diameter [5] | SDDA area increase [5] | SDDA increase [5] | (S)DDA with tropolone [5]
CC(=O)[O-].CC(=O)[O-].CC(=O)[O-].[Bi+3] [Bismuth (III) acetate] | >46.4** μg/ml | 11.6 µg/mL |  |  |  |  |  |  |  |  |  |  | 
[Cl][Bi]([Cl])[Cl] [Bismuth (III) chloride] | 27 µg/mL and 40 µg/mL |  |  |  |  |  |  |  |  |  |  |  | 
O=C([O-])CC(O)(CC(=O)[O-])C(=O)[O-].[Bi+3] [Bismuth (III) citrate] | 8.5 µg/mL | 2.1 µg/mL | >67.9** μg/ml | >67.9** μg/ml |  |  |  |  |  |  |  |  | 
O=C(O)c1cc(O)c2c(c1)[O][Bi]([OH])[O]2 [Bismuth (III) subgallate] | >67.2** μg/ml | >67.2** μg/ml |  |  | >67.2** μg/ml | >67.2** μg/ml |  |  |  |  |  |  | 
[Cu+].[I-] [Copper (I) iodide] |  |  |  |  | >97.5** μg/ml | >97.5** μg/ml | 7.8 µg/mL | 31.25 µg/mL | 0.25 | 29.66 mm | 24.28% | 3.41 mm | 33.07 mm
O=C1CC[C@@H](C(=O)[O-])N1.O=C1CC[C@@H](C(=O)[O-])N1.[Cu+2] [Copper (II) PCA] |  |  |  |  | >81.9** μg/ml | >81.9** μg/ml | 15.6 µg/mL | 62.5 µg/mL | 0.25 | 23.36 mm | 55.70% | 5.79 mm | 29.15 mm
CSCC[C@H](NC(C)=O)C(=O)[O-].CSCC[C@H](NC(C)=O)C(=O)[O-].[Cu+2] [Copper (II) acetylmethionate] |  |  |  |  |  |  | 7.8 µg/mL | 125 µg/mL | 0.06 | 10.23 mm | 306.27% | 13.44 mm | 26.67 mm
[Cl][Cu][Cl] [Copper (II) chloride] |  |  |  |  | >34.4** μg/ml | >34.4** μg/ml | 1.95 µg/mL | 31.25 µg/mL | 0.06 | 32.14 mm | 1.94% | 0.31 mm | 32.45 mm
NCC(=O)[O-].NCC(=O)[O-].[Cu+2] [Copper (II) glycinate] |  |  | >54.2** μg/ml | >54.2** μg/ml |  |  |  |  |  |  |  |  | 
CC(=O)c1c([O-])c(C)c([O-])c2c1OC1=CC(=O)C(C(C)=O)C(=O)C12C.[Cu+2] (centres unmarked) [Copper (II) usnate] |  |  |  |  | 6 µg/mL | 3 µg/mL | 0.25 µg/mL | 1.95 µg/mL | 0.125 | 38.35 mm | 22.13% | 4.03 mm | 42.38 mm
